Measured values from US20230391768A2, “IMIDAZOPYRIDINE DERIVATIVES AND AZA-IMIDAZOPYRIDINE DERIVATIVES AS JANUS KINASE 2 INHIBITORS AND USES THEREOF” (Dana-Farber Cancer Institute, Inc., priority 2018, published 2023).

Assays:
Assay in all cases: KINOMEscan
Type in all cases: binding
Settings in all cases: read-out: percent of control
CAMK2B = CAMK2B (Homo sapiens (Human), UniProt Q13554)
Method: (§1) In vitro profiling of Compound I-2 (1 μM) was performed using the DiscoveRx KINOMEscan® platform.

CHEK2 = CHEK2 (Homo sapiens (Human), UniProt O96017)
Method: as §1

PIK3CA(M1043I) = PIK3CA(M1043I) (Homo sapiens (Human), UniProt P42336, M1043I)
Method: as §1

LIMK1 = LIMK1 (Homo sapiens (Human), UniProt P53667)
Method: as §1

PFCDPK1(P.falciparum) = PFCDPK1(P.falciparum) (Plasmodium falciparum (isolate 3D7), UniProt P62344)
Method: as §1

STK39 = STK39 (Homo sapiens (Human), UniProt Q9UEW8)
Method: as §1

RIOK2 = RIOK2 (Homo sapiens (Human), UniProt Q9BVS4)
Method: as §1

HIPK2 = HIPK2 (Homo sapiens (Human), UniProt Q9H2X6)
Method: as §1

SGK3 = SGK3 (Homo sapiens (Human), UniProt Q96BR1)
Method: as §1

CHEK1 = CHEK1 (Homo sapiens (Human), UniProt O14757)
Method: as §1

CSNK1A1L = CSNK1A1L (Homo sapiens (Human), UniProt Q8N752)
Method: as §1

TYR = TYR (Homo sapiens (Human), UniProt Q06418)
Method: as §1

[1] = molecular target: ABL1(F317I)-phosphorylated (Homo sapiens (Human), UniProt P00519, F317I)
Method: as §1

[2] = molecular target: ABL1(T315I)-nonphosphorylated (Homo sapiens (Human), UniProt P00519, T315I)
Method: as §1

PAK3 = PAK3 (Homo sapiens (Human), UniProt O75914)
Method: as §1

WNK4 = WNK4 (Homo sapiens (Human), UniProt Q96J92)
Method: as §1

TNIK = TNIK (Homo sapiens (Human), UniProt Q9UKE5)
Method: as §1

p38-alpha = p38-alpha (Homo sapiens (Human), UniProt Q16539)
Method: as §1

CDK11 = CDK11 (Homo sapiens (Human), UniProt Q9BWU1)
Method: as §1

NEK7 = NEK7 (Homo sapiens (Human), UniProt Q8TDX7)
Method: as §1

KIT = KIT (Homo sapiens (Human), UniProt P10721)
Method: as §1

VRK2 = VRK2 (Homo sapiens (Human), UniProt Q86Y07)
Method: as §1

ERK5 = ERK5 (Homo sapiens (Human), UniProt Q13164)
Method: as §1

NEK5 = NEK5 (Homo sapiens (Human), UniProt Q6P3R8)
Method: as §1

TRPM6 = TRPM6 (Homo sapiens (Human), UniProt Q9BX84)
Method: as §1

SRMS = SRMS (Homo sapiens (Human), UniProt Q9H3Y6)
Method: as §1

IRAK3 = IRAK3 (Homo sapiens (Human), UniProt Q9Y616)
Method: as §1

CASK = CASK (Homo sapiens (Human), UniProt O14936)
Method: as §1

MARK4 = MARK4 (Homo sapiens (Human), UniProt Q96L34)
Method: as §1

RIPK5 = RIPK5 (Homo sapiens (Human), UniProt Q6XUX3)
Method: as §1

CDKL5 = CDKL5 (Homo sapiens (Human), UniProt O76039)
Method: as §1

PHKG1 = PHKG1 (Homo sapiens (Human), UniProt Q16816)
Method: as §1

SRPK3 = SRPK3 (Homo sapiens (Human), UniProt Q9UPE1)
Method: as §1

DMPK2 = DMPK2 (Homo sapiens (Human), UniProt Q6DT37)
Method: as §1

RET (V804L) = RET (V804L) (Homo sapiens (Human), UniProt P07949, V804L)
Method: as §1

PAK6 = PAK6 (Homo sapiens (Human), UniProt Q9NQU5)
Method: as §1

CDKL1 = CDKL1 (Homo sapiens (Human), UniProt Q00532)
Method: as §1

ACVR2A = ACVR2A (Homo sapiens (Human), UniProt P27037)
Method: as §1

MAP4K3 = MAP4K3 (Homo sapiens (Human), UniProt Q8IVH8)
Method: as §1

Sequence of SRMS (Q9H3Y6 whole entry): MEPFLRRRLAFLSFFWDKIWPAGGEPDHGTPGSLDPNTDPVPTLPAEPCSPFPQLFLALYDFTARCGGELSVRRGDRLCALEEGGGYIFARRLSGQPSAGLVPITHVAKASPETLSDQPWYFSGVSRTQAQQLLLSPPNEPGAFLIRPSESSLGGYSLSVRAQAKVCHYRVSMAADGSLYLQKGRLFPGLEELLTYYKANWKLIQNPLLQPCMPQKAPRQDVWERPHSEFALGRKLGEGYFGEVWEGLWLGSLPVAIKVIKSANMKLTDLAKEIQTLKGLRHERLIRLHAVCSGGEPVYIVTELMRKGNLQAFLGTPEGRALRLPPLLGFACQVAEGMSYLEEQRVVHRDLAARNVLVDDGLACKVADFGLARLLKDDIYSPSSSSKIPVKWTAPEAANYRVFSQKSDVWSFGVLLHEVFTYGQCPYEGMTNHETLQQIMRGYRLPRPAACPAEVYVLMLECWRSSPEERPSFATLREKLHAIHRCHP
Sequence of p38-alpha (Q16539 whole entry): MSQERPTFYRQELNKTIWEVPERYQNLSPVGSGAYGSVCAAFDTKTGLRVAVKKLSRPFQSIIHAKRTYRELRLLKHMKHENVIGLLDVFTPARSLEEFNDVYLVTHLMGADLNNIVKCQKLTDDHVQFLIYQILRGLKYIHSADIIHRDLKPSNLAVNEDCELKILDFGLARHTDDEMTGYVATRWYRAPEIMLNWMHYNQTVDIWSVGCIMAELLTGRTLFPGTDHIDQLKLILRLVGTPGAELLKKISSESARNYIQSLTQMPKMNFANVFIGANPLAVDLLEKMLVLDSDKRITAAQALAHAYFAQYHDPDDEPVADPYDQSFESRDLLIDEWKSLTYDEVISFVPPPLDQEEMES
Sequence of DMPK2 (Q6DT37 whole entry): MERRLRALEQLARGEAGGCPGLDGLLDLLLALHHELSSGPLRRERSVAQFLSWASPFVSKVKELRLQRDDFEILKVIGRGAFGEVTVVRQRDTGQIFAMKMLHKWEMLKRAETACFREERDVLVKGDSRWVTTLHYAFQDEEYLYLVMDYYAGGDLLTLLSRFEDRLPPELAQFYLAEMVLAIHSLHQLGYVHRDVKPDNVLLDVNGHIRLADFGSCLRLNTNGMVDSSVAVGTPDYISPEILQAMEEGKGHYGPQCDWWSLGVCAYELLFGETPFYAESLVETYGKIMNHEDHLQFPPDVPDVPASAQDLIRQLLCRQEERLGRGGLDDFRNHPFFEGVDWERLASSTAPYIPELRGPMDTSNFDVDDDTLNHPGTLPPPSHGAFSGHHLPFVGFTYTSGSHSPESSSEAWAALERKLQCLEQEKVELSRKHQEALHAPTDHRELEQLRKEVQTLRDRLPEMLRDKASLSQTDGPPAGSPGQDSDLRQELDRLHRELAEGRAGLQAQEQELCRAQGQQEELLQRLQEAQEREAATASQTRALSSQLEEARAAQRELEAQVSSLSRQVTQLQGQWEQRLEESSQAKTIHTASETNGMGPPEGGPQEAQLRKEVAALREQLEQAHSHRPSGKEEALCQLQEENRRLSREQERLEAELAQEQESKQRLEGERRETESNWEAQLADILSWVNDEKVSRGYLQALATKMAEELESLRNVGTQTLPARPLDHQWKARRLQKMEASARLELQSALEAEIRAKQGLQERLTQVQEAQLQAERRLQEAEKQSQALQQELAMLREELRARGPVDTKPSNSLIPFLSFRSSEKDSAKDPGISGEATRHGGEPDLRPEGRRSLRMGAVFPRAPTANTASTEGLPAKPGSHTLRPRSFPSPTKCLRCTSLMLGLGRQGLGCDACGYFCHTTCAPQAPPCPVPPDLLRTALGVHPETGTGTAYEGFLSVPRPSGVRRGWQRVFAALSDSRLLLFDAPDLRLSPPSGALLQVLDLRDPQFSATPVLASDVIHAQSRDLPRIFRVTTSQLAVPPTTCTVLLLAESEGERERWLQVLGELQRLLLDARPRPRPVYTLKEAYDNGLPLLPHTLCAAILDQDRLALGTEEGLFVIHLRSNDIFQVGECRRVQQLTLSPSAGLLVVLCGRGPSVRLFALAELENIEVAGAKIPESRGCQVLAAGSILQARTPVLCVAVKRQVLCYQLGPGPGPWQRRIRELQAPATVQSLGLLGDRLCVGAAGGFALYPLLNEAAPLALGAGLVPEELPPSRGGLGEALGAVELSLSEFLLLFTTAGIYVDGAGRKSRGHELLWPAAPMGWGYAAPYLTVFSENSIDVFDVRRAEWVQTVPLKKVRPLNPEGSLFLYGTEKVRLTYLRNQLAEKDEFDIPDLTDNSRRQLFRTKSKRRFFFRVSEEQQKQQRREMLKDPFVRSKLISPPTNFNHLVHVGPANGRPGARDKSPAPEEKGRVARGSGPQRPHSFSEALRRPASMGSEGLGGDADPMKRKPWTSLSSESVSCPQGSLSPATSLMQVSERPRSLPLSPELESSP
Sequence of VRK2 (Q86Y07 whole entry): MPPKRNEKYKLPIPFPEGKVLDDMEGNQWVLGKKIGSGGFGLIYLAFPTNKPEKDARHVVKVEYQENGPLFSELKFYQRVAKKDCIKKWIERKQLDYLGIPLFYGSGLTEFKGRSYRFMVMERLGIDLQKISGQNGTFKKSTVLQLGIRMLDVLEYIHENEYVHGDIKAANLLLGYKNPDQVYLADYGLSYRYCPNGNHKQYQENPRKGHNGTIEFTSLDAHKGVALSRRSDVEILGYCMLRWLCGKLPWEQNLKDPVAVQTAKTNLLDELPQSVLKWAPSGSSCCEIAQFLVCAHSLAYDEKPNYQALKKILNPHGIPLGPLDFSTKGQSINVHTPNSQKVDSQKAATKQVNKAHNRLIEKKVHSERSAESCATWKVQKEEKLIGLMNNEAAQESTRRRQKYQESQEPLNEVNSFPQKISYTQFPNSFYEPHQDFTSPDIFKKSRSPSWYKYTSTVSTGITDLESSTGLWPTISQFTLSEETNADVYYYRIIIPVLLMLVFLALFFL
Sequence of PAK6 (Q9NQU5 whole entry): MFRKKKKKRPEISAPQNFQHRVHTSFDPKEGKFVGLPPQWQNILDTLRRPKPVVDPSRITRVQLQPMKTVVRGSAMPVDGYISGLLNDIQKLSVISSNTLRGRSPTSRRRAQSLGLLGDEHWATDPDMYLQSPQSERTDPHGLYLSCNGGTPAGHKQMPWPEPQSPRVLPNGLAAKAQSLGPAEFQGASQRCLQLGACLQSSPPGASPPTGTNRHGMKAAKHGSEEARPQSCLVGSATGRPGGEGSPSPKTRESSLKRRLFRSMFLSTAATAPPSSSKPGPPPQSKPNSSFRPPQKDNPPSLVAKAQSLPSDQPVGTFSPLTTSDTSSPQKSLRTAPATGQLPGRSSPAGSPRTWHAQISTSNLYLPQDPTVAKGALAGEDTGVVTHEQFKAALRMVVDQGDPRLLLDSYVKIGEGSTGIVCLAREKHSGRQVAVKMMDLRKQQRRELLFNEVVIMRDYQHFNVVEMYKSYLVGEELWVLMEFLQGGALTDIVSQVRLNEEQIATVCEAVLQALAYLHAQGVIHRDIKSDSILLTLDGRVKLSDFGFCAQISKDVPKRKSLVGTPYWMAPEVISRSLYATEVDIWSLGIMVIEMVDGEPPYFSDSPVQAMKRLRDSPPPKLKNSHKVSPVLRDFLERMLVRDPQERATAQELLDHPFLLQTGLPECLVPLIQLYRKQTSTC
Sequence of CSNK1A1L (Q8N752 whole entry): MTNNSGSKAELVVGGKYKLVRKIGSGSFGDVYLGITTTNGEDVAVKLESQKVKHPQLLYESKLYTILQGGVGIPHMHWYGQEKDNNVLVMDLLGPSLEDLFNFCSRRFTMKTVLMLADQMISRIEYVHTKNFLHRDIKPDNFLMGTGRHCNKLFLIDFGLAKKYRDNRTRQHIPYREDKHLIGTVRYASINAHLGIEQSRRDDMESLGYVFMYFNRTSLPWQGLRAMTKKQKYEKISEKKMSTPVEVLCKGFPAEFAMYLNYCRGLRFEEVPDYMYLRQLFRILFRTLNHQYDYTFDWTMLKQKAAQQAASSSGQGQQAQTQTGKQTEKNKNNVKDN
Sequence of KIT (P10721 26-976): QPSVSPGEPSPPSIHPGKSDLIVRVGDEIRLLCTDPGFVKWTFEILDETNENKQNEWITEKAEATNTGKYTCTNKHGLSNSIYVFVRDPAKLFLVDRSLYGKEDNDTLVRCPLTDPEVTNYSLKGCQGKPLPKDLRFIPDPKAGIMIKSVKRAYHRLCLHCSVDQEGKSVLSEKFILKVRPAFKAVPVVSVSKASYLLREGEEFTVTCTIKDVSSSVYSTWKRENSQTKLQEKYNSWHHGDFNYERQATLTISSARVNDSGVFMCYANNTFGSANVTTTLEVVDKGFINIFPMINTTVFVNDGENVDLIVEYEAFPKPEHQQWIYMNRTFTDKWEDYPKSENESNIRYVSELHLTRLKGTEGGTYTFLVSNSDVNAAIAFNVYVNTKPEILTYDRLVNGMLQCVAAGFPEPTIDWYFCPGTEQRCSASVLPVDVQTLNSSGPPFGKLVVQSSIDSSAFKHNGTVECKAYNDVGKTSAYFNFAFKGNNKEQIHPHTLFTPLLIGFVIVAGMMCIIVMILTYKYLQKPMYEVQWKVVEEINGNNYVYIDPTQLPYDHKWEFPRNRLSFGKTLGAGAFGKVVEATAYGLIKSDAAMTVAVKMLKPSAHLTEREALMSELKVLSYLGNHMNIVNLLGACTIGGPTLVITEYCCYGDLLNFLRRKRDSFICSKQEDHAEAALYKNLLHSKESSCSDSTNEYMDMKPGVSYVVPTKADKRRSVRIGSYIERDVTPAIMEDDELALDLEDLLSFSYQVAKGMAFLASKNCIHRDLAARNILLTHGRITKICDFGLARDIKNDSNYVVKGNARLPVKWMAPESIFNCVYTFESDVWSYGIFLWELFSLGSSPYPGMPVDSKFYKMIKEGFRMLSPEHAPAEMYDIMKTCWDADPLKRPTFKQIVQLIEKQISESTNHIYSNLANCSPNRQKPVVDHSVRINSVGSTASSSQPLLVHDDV

SMILES	remaining binding at 1 µM (CAMK2B)	remaining binding at 1 µM (CHEK2)	remaining binding at 1 µM (PIK3CA(M1043I))	remaining binding at 1 µM (LIMK1)	remaining binding at 1 µM (PFCDPK1(P.falciparum))	remaining binding at 1 µM (STK39)	remaining binding at 1 µM (RIOK2)	remaining binding at 1 µM (HIPK2)	remaining binding at 1 µM (SGK3)	remaining binding at 1 µM (CHEK1)	remaining binding at 1 µM (CSNK1A1L)	remaining binding at 1 µM (TYR)	remaining binding at 1 µM [1]	remaining binding at 1 µM [2]	remaining binding at 1 µM (PAK3)	remaining binding at 1 µM (WNK4)	remaining binding at 1 µM (TNIK)	remaining binding at 1 µM (p38-alpha)	remaining binding at 1 µM (CDK11)	remaining binding at 1 µM (NEK7)	further results
CCN1CCN(Cc2cc(NC(=O)c3ccc(C)c(-c4ccc5nc(NC(=O)C6CC6)cn5n4)c3)cc(C(F)(F)F)c2)CC1 [Compound I-2, 3-(2-(cyclopropanecarboxamido)imidazo[1,2-b]pyridazin-6-yl)-N-(3-((4-ethylpiperazin-1-yl)methyl)-5-(trifluoromethyl)phenyl)-4-methylbenzamide]	100%	90%	100%	87%	84%	74%	100%	93%	100%	100%	100%	26%	5.1%	0%	82%	75%	16%	8.4%	0.6%	99%	remaining binding at 1 µM (KIT): 0%; remaining binding at 1 µM (VRK2): 88%; remaining binding at 1 µM (ERK5): 95%; remaining binding at 1 µM (NEK5): 89%; remaining binding at 1 µM (TRPM6): 93%; remaining binding at 1 µM (SRMS): 86%; remaining binding at 1 µM (IRAK3): 90%; remaining binding at 1 µM (CASK): 86%; remaining binding at 1 µM (MARK4): 84%; remaining binding at 1 µM (RIPK5): 89%; remaining binding at 1 µM (CDKL5): 95%; remaining binding at 1 µM (PHKG1): 99%; remaining binding at 1 µM (SRPK3): 92%; remaining binding at 1 µM (DMPK2): 87%; remaining binding at 1 µM (RET (V804L)): 0.15%; remaining binding at 1 µM (PAK6): 95%; remaining binding at 1 µM (CDKL1): 40%; remaining binding at 1 µM (ACVR2A): 63%; remaining binding at 1 µM (MAP4K3): 3.4%
CCN1CCN(Cc2cc(NC(=O)c3ccc(C)c(-c4ccc5nc(NC(=O)C6CC6)cn5c4)c3)cc(C(F)(F)F)c2)CC1 [Compound I-6, 3-(2-(cyclopropanecarboxamido)imidazo[1,2-a]pyridin-6-yl)-N-(3-((4-ethylpiperazin-1-yl)methyl)-5-(trifluoromethyl)phenyl)-4-methylbenzamide]	100%	93%	73%	96%	88%	93%	94%	94%	100%	100%	97%	47%	9.4%	0%	66%	100%	14%	26%	2.7%	91%	remaining binding at 1 µM (KIT): 0%; remaining binding at 1 µM (VRK2): 92%; remaining binding at 1 µM (ERK5): 92%; remaining binding at 1 µM (NEK5): 100%; remaining binding at 1 µM (TRPM6): 78%; remaining binding at 1 µM (SRMS): 79%; remaining binding at 1 µM (IRAK3): 93%; remaining binding at 1 µM (CASK): 85%; remaining binding at 1 µM (MARK4): 80%; remaining binding at 1 µM (RIPK5): 100%; remaining binding at 1 µM (CDKL5): 100%; remaining binding at 1 µM (PHKG1): 93%; remaining binding at 1 µM (SRPK3): 83%; remaining binding at 1 µM (DMPK2): 100%; remaining binding at 1 µM (RET (V804L)): 0%; remaining binding at 1 µM (PAK6): 97%; remaining binding at 1 µM (CDKL1): 77%; remaining binding at 1 µM (ACVR2A): 100%; remaining binding at 1 µM (MAP4K3): 19%
